In paper PMC10703812, “Understanding the molecular mechanisms of odorant binding and activation of the human OR52 family” (Nature Communications, 2023):
Several values for one entry are separate records, joined by “and”; a condition that tells them apart may be missing. Equal entries are not always repeated.

Experiments:
OR52cs ΔN(1–18) = assay: cAMP signaling assay, N-tail deletion mutant; assay type: cell-based, human; conditions: Fig. 2c
Procedure: (§1) For cAMP assay, CRE luciferase assay, and surface ELISA, the full-length OR52cs construct was cloned into the pcDNA3.1 vector. The Lucy signal sequence and FLAG peptide sequence were added to the N-terminus. Mutant constructs were generated by site-directed mutagenesis. For BRET assay, eYFP was added at the C-terminus of OR52cs with a GGGGS linker. Rluc was added to Gα for resonance partner (after L99 for Gαs, and I100 for Gαolf, respectively, with GGGGS linker back and forth).
(§2) Hana3A cells were seeded on 96-well white microplates and transfected with OR52cs or the corresponding mutants and cAMP sensor (Promega). The medium was exchanged with CO2-independent medium (Gibco) supplemented with 0.375 mg ml^−1 D-luciferin (Nanolight) 48 h after infection, and cells were incubated in the dark at 20 °C for 2 h. Basal luminescence was detected using a Tristar 2 LB 942 multimode reader (Berthold) until it reached a plateau. Subsequently, various concentrations of odorants and forskolin (Sigma-Aldrich) were added to each well, and luminescence was measured again. Data were analyzed and plotted using GraphPad Prism 9.4.1.

OR52cs F161A = assay: cAMP signaling assay, mutant; assay type: cell-based, human; parameters: cAMP response: scale not given here; conditions: for cAMP response: Fig.3d source data, single experiments
Procedure: as §1, §2

OR52cs F253A = assay: cAMP signaling assay, mutant; assay type: cell-based, human; parameters: cAMP response: scale not given here; conditions: for cAMP response: Fig.S13b source data, single experiments
Procedure: as §1, §2

OR52cs F261A = assay: cAMP signaling assay, mutant; assay type: cell-based, human; parameters: cAMP response: scale not given here; conditions: for cAMP response: Fig.3d source data, single experiments
Procedure: as §1, §2

OR52cs H264A = assay: cAMP signaling assay, mutant; assay type: cell-based, human; parameters: cAMP response: scale not given here; conditions: for cAMP response: Fig.S13b source data, single experiments
Procedure: as §1, §2

OR52cs H275A = assay: cAMP signaling assay, mutant; assay type: cell-based, human; parameters: cAMP response: scale not given here; conditions: for cAMP response: Fig.S13b source data, single experiments
Procedure: as §1, §2

OR52cs I208A = assay: cAMP signaling assay, mutant; assay type: cell-based, human; parameters: cAMP response: scale not given here; conditions: for cAMP response: Fig.3d source data, single experiments
Procedure: as §1, §2

OR52cs S114A = assay: cAMP signaling assay, mutant; assay type: cell-based, human; parameters: cAMP response: scale not given here; conditions: for cAMP response: Fig.S13b source data, single experiments
Procedure: as §1, §2

OR52cs T110A = assay: cAMP signaling assay, mutant; assay type: cell-based, human; parameters: cAMP response: scale not given here; conditions: for cAMP response: Fig.3d source data, single experiments
Procedure: as §1, §2

OR52cs Y254A = assay: cAMP signaling assay, mutant; assay type: cell-based, human; parameters: cAMP response: scale not given here; conditions: for cAMP response: Fig.S13b source data, single experiments
Procedure: as §1, §2

OR52cs D212A = assay: cAMP signaling assay, mutant; assay type: cell-based, human; parameters: scale not given here; conditions: Fig.S13b source data, single experiments
Procedure: as §1, §2

[1] = tested on: pcDNA (Null) Hana3A cells; assay: cAMP signaling assay, no receptor (Null / pcDNA); assay type: cell-based; parameters: cAMP response: unit not given here; conditions: single experiments; for cAMP response: Fig.S11a source data
Procedure: as §2

OR52cs = assay: CRE luciferase assay in Hana3A cells; assay type: cell-based, human; conditions: Fig.S7b, single experiments
Procedure: as §1
Hana3A cells were seeded on 96-well white microplates (SPL) and transfected with plasmids encoding CRE-luciferase, OR52cs or R265^6.59A mutant, Renilla luciferase, RTP1S, and Ric8b at a […] ratio 24 h after seeding. 48 h after infection, cells were treated with odorants and incubated at 37 °C for 4 h. Luminescence was measured using a Tristar 2 LB 942 multimode reader (Berthold). All values were divided by the Renilla luciferase activity to normalize the effect of cell confluence. All data were analyzed using GraphPad Prism 9.4.1.

CCCCCCCC(=O)O [Octanoate, octanoic acid]
downstream signaling (in words) (OR52cs ΔN(1–18)): loss of downstream signaling | X-fold over OR52cs (relative fold of EC50) (OR52cs F161A; Supplementary Table 3): 5.3 | EC50 (OR52cs F161A; Supplementary Table 3, N=3): 42 µM | pEC50 ± SEM (OR52cs F161A; Supplementary Table 3, N=3): 4.214 ± 0.075 | cAMP response (OR52cs F161A; odorant 3.0303e-5 M): 40.1826 and 27.0053 and 36.2901 | cAMP response (OR52cs F161A; odorant 0.0001 M): 77.0461 and 49.0263 and 69.6028 | cAMP response (OR52cs F161A; odorant 0.001 M): 102.629 and 63.8026 and 79.1192 | EC50 (OR52cs F253A; Supplementary Fig. 13b): 219 µM | cAMP response (OR52cs F253A; odorant 9.18274e-8 M): 0.6755 and 1.259 and 1.115 | cAMP response (OR52cs F253A; odorant 9.18274e-7 M): 1.327 and 1.6492 and 1.457 | cAMP response (OR52cs F253A; odorant 9.18274e-6 M): 3.718 and 4.351 and 3.597 | cAMP response (OR52cs F253A; odorant 3.0303e-5 M): 11.1366 and 13.9484 and 11.2845 | cAMP response (OR52cs F253A; odorant 0.0001 M): 38.3735 and 42.0381 and 35.9654 | cAMP response (OR52cs F253A; odorant 0.001 M): 106.487 and 105.397 and 81.8862 | downstream signaling (in words) (OR52cs F261A; Fig. 3d): significantly reduced downstream signaling | X-fold over OR52cs (relative fold of EC50) (OR52cs F261A; Supplementary Table 3): 64.0 | EC50 (OR52cs F261A; Supplementary Table 3, N=3): 506 µM | pEC50 ± SEM (OR52cs F261A; Supplementary Table 3, N=3): 3.326 ± 1.547 | cAMP response (OR52cs F261A; odorant 9.18274e-7 M): 3.451 and 3.066 and 1.971 | cAMP response (OR52cs F261A; odorant 3.0303e-5 M): 5.756 and 6.219 and 11.0254 | cAMP response (OR52cs F261A; odorant 0.001 M): 66.0962 and 58.1347 and 77.5545 | EC50 (OR52cs H264A; Supplementary Fig. 13b): 60 µM | cAMP response (OR52cs H264A; odorant 9.18274e-6 M): 4.615 and 4.081 and 4.27 | cAMP response (OR52cs H264A; odorant 3.0303e-5 M): 14.0038 and 11.3214 and 12.3984 | cAMP response (OR52cs H264A; odorant 0.0001 M): 28.5965 and 25.2729 and 26.8638 | cAMP response (OR52cs H264A; odorant 0.001 M): 40.8869 and 35.5267 and 36.771 | EC50 (OR52cs H275A; Supplementary Fig. 13b): 67 µM | cAMP response (OR52cs H275A; odorant 9.18274e-7 M): 1.163 and 1.2177 and 0.8093 | cAMP response (OR52cs H275A; odorant 9.18274e-6 M): 12.1088 and 9.48 and 7.718 | cAMP response (OR52cs H275A; odorant 3.0303e-5 M): 33.8567 and 32.1825 and 24.2227 | cAMP response (OR52cs H275A; odorant 0.0001 M): 62.7151 and 60.5238 and 53.5809 | cAMP response (OR52cs H275A; odorant 0.001 M): 101.549 and 94.9309 and 77.7131 | X-fold over OR52cs (relative fold of EC50) (OR52cs I208A; Supplementary Table 3): 0.65 | EC50 (OR52cs I208A; Supplementary Table 3, N=3): 5.1 µM | pEC50 ± SEM (OR52cs I208A; Supplementary Table 3, N=3): 5.321 ± 0.119 | cAMP response (OR52cs I208A; odorant 9.18274e-7 M): 9.649 and 7.873 and 7.984 | cAMP response (OR52cs I208A; odorant 9.18274e-6 M): 74.2921 and 59.9569 | cAMP response (OR52cs I208A; odorant 3.0303e-5 M): 118.216 and 87.9298 and 99.5696 | cAMP response (OR52cs I208A; odorant 0.0001 M): 123.062 and 85.14 and 99.773 | cAMP response (OR52cs I208A; odorant 0.001 M): 115.233 and 86.0111 and 85.4934 | EC50 (OR52cs S114A; Supplementary Fig. 13b): 54 µM | cAMP response (OR52cs S114A; odorant 9.18274e-7 M): 0.7937 and 0.8194 and 1.08 | cAMP response (OR52cs S114A; odorant 9.18274e-6 M): 9.728 and 8.57 and 11.8154 | cAMP response (OR52cs S114A; odorant 3.0303e-5 M): 42.675 and 40.9596 and 54.3071 | cAMP response (OR52cs S114A; odorant 0.0001 M): 71.9561 and 66.6762 and 91.932 | cAMP response (OR52cs S114A; odorant 0.001 M): 103.979 and 112.532 and 126.832 | X-fold over OR52cs (relative fold of EC50) (OR52cs T110A; Supplementary Table 3): 2.9 | EC50 (OR52cs T110A; Supplementary Table 3, N=3): 22.7 µM | pEC50 ± SEM (OR52cs T110A; Supplementary Table 3, N=3): 4.293 ± 0.098 | cAMP response (OR52cs T110A; odorant 3.0303e-5 M): 45.9718 and 31.6697 and 55.6315 | cAMP response (OR52cs T110A; odorant 0.0001 M): 55.3228 and 56.0506 and 78.0827 | cAMP response (OR52cs T110A; odorant 0.001 M): 63.5049 and 61.123 and 88.9664 | EC50 (OR52cs Y254A; Supplementary Fig. 13b): 0.6 µM | cAMP response (OR52cs Y254A; odorant 9.18274e-8 M): 3.215 and 2.4896 and 3.9476 | cAMP response (OR52cs Y254A; odorant 9.18274e-7 M): 17.867 and 17.7491 and 20.6138 | cAMP response (OR52cs Y254A; odorant 9.18274e-6 M): 27.7636 and 29.4886 and 28.529 | cAMP response (OR52cs Y254A; odorant 3.0303e-5 M): 29.9943 and 28.2884 and 30.9686 | cAMP response (OR52cs Y254A; odorant 0.0001 M): 31.1114 and 30.9026 and 31.9237 | cAMP response (OR52cs Y254A; odorant 0.001 M): 30.3248 and 30.6953 and 33.5912 | cAMP response (OR52cs D212A; odorant 9.18274e-6 M): 0.5276 and 0.521 and 1.015 | cAMP response (OR52cs D212A; odorant 3.0303e-5 M): 0.9753 and 0.9567 and 1.328 | cAMP response (OR52cs D212A; odorant 0.0001 M): 4.038 and 3.668 and 3.274 | cAMP response (OR52cs D212A; odorant 0.001 M): 42.8474 and 43.8072 and 40.1115 | cAMP response ([1]; odorant 9.18274e-8 M): 2.6643 and 2.911 and 3.873 and 3.399 | cAMP response ([1]; odorant 9.18274e-7 M): 2.569 and 3.588 and 3.415 and 3.589 | cAMP response ([1]; odorant 9.18274e-6 M): 2.895 and 3.57 and 4.047 and 4.019 | cAMP response ([1]; odorant 3.0303e-5 M): 3.574 and 3.7923 and 3.945 and 4.033 | cAMP response ([1]; odorant 0.0001 M): 3.1425 and 4.269 and 3.81 and 3.981 | cAMP response (raw signal) upon OCA treatment ([1]; odorant 0.001 M (1 mM OCA), Fig.S11a left, listed as Octanotae): 10538 and 15823 and 16065 and 17585 | cAMP response ([1]; odorant 0.001 M): 4.161 and 5.018 and 6.3304 and 6.191 | relative fold of CRE luciferase activity (OR52cs; odorant 10 μM): 1.744 fold and 2.175 fold and 2.388 fold and 2.247 fold | relative fold of CRE luciferase activity (OR52cs; odorant 50 μM): 4.124 fold and 3.914 fold and 5.3918 fold and 4.986 fold | relative fold of CRE luciferase activity (OR52cs; odorant 100 μM): 4.893 fold and 4.461 fold and 6.103 fold and 6.04 fold | relative fold of CRE luciferase activity (OR52cs; odorant 250 μM): 5.851 fold and 4.875 fold and 6.831 fold and 6.812 fold | relative fold of CRE luciferase activity (OR52cs; odorant 500 μM): 8.532 fold and 7.359 fold and 7.746 fold and 7.343 fold
